Laboratory results as given in US11596643B2 (Sichuan Yingrui Pharmaceutical Technology Company, priority 2019, dated 2023).
Converted amounts (≈) assume the structure as drawn.

How the values were obtained:
4T1 breast cancer [1] = assay: In-vivo pharmacodynamic test, tumor-bearing mice; settings: 4T1 breast cancer tumor-bearing mice, 5 mg/kg adriamycin equivalent, intravenously injected 4 times
Protocol: (§1) In-vivo pharmacodynamic test: H22 liver cancer cells, 4T1 breast cancer cells, EMT6 breast cancer cells and HT-29 colon cancer cells that were growing at logarithmic phase were collected, and the concentration of the cell suspension was adjusted to 3×10^7 cells/mL. The cells were subcutaneously inoculated into right upper extremity of Balb/c mice or nude mice with 0.1 mL per mouse (containing about 3×10^6 cells). After the average tumor volume of the inoculated mice was reached 100 mm^3, the tumor-bearing mice were randomly divided into a negative control group (with 0.9% sodium chloride injection), an adriamycin control group (5 mg/kg) and a pectin-adriamycin experimental group (the equivalent of adriamycin being 5 mg/kg) respectively, 8 mice for each group, the above various drugs were intravenously injected for 4 times in total. The tumor volume change and the body weights were recorded, and the equation for volume calculation was as follows: volume=(length×width^2)/2.

EMT-6 breast cancer = assay: In-vivo pharmacodynamic test, tumor-bearing mice; settings: EMT-6 breast cancer tumor-bearing mice, 5 mg/kg adriamycin equivalent, intravenously injected 4 times
Protocol: as §1

HT-29 colon cancer = assay: In-vivo pharmacodynamic test, tumor-bearing mice; settings: HT-29 colon cancer tumor-bearing mice, 5 mg/kg adriamycin equivalent, intravenously injected 4 times
Protocol: as §1

H22 liver cancer [2] = assay: In-vivo pharmacodynamic test, tumor-bearing mice; settings: 5 mg/kg adriamycin equivalent, intravenously injected 4 times
Protocol: as §1

[3] = Body weight and death of tumor-bearing mice in the in-vivo pharmacodynamic test
Protocol: as §1

H22 liver cancer [4] = assay: Comparison with the control compound, H22 liver cancer mice tumor model; format: in vivo
4T1 breast cancer [5] = assay: Comparison with the control compound, 4T1 breast cancer mice tumor model; format: in vivo
[6] = test system: SMMC7721 liver cancer cells; assay: In-vitro cytotoxicity test (CCK-8); format: cell-based
Protocol: (§2) In-vitro cytotoxicity test: HT-29 colon cancer cells, HepG-2 liver cancer cells, SMMC7721 liver cancer cells, SKOV3 ovarian cancer cells and MCF-7 breast cancer cells that were growing at the logarithmic phase were collected. The concentration of cell suspension was adjusted, and 100 uL of the cell suspension was added per well, then the cells were plated so that the density of cells to be tested was 4000 cells/well (the marginal wells being filled with a sterile PBS). Incubation was performed for 24 hours at 5% CO2 and 37° C. Then the medium was discarded, and pectin-adriamycin or adriamycin with a concentration gradient (containing 0.125, 0.25, 0.5, 1.0, 2.0, 4.0, 8.0 and 16.0 ug/mL of […]) was added, and three repetitions were set for each concentration. Then incubation was performed for 48 hours in an incubator at 5% CO2 and 37° C. 10 μl of a CCK-8 solution was added to each well to continue cultivation for 2 hours. The absorbance of each well at 450 nm was measured with an Enzyme-labelled meter, and IC50 values of pectin-adriamycin and adriamycin for various cancer cells were calculated.

HT-29 colon cancer cells = assay: In-vitro cytotoxicity test (CCK-8); format: cell-based
Protocol: as §2

[7] = test system: HepG-2 liver cancer cells; assay: In-vitro cytotoxicity test (CCK-8); format: cell-based
Protocol: as §2

[8] = test system: MCF-7 breast cancer cells; assay: In-vitro cytotoxicity test (CCK-8); format: cell-based
Protocol: as §2

[9] = test system: SKOV3 ovarian cancer cells; assay: In-vitro cytotoxicity test (CCK-8); format: cell-based
Protocol: as §2

Solubility in water = format: physicochemical
[10] = tumor-bearing mice, 5 mg/kg adriamycin equivalent, i.v. 4 times
[11] = Example 16, conjugate intravenous, control intraperitoneal

Q: What does the source list for “modified pectin-PEG8-VAPABC-adriamycin [pectin-adriamycin conjugate]”?
A: tumor growth inhibition rate (4T1 breast cancer [1]): 78.1%; tumor growth inhibition rate (EMT-6 breast cancer): 71.68%; curative effect (HT-29 colon cancer): better than that of the adriamycin control; tumor growth inhibition rate (H22 liver cancer [2]): 72.98%; body weights of the mice [3, 10]: not significantly decreased; death of mice [3, 10]: no a mouse died; tumor inhibition rate (H22 liver cancer [4]; [11]): 70.83%; inhibition time (H22 liver cancer [4]; same dosage, versus control compound (FIG. 8)): longer; tumor inhibition rate (4T1 breast cancer [5]; [11]): 76.20%; inhibition time (4T1 breast cancer [5]; same dosage, versus control compound (FIG. 9)): longer; IC50, SMMC7721 liver cancer ([6]; 48 hours incubation): 2.31 µg/mL; IC50, HT-29 colon cancer (HT-29 colon cancer cells; 48 hours incubation): 10.74 µg/mL; IC50, HepG-2 liver cancer ([7]; 48 hours incubation): 4.11 µg/mL; IC50, MCF-7 breast cancer ([8]; 48 hours incubation): 3.961 µg/mL; IC50, SKOV3 ovarian cancer ([9]; 48 hours incubation): 5.488 µg/mL; Solubility in water (Solubility in water): 10 mg/ml, solubility being

Q: Which “tumor growth inhibition rate” value (4T1 breast cancer [1]) does the source give for `COc1cccc2c1C(=O)c1c(O)c3c(c(O)c1C2=O)C[C@@](O)(C(=O)CO)C[C@@H]3O[C@H]1C[C@H](N)[C@H](O)[C@H](C)O1` [adriamycin, reference compound] here?
A: 50.61%

Q: And the “tumor growth inhibition rate” value (EMT-6 breast cancer)?
A: 56.95%

Q: What about the “tumor growth inhibition rate” value (H22 liver cancer [2]) of the same molecule?
A: 53.42%

Q: What about the body weight decrease ([3]; mouse, in vivo, iv, 5 mg/kg) of the same molecule?
A: more than 15%

Q: What about the “body weights of the mice” value ([3]; mouse, in vivo, iv, 5 mg/kg) of the same molecule?
A: significantly decreased

Q: What about the death of mice [3, 10] of the same molecule?
A: minormice died

Q: What about the IC50 ([6]; Homo sapiens, SMMC-7721, 48 hours incubation) of the same molecule?
A: 2.62 µg/mL (≈ 4.82 µM)

Q: What about the IC50 (HT-29 colon cancer cells; Homo sapiens, HT-29, 48 hours incubation) of the same molecule?
A: 10.9 µg/mL (≈ 20.1 µM)

Q: And the IC50 ([7]; Homo sapiens, HepG2, 48 hours incubation)?
A: 4.38 µg/mL (≈ 8.05 µM)

Q: And the IC50 ([8]; Homo sapiens, MCF7, 48 hours incubation)?
A: 3.97 µg/mL (≈ 7.3 µM)

Q: What about the IC50 ([9]; Homo sapiens, SK-OV-3, 48 hours incubation) of the same molecule?
A: 5.7 µg/mL (≈ 10.5 µM)
